From PMC3914891, “Pentacyclic Nitrofurans with In Vivo Efficacy and Activity against Nonreplicating Mycobacterium tuberculosis” (PLoS ONE, 2014)
Values after ≈ are worked out from the molar mass of the structure shown. Like-named read-outs stand apart in the source and are kept apart here. Marks after values point to notes of the source that are not given here.

Tests used:
M. tuberculosis = assay: MIC determination, microbroth dilution, M. tuberculosis; type: cell-based, Mycobacterium tuberculosis
Vero cells [1] = details: cited from earlier work
[2] = mouse plasma; ref footnote g, values reported in reference (number not given); cited from earlier work
Vero cells [3] = assay: In vitro cytotoxicity against Vero cells
[4] = tested on: M. bovis strain BCG Pasteur; type: cell-based
[5] = tested on: M. tuberculosis strain H37Rv; assay: Checkerboard synergy assay; type: cell-based, Mycobacterium tuberculosis; details: for MIC: Mycobacterium tuberculosis, 168 h, read-out: MIC Alone
[6] = tested on: hypoxic M. tuberculosis strain H37Rv; assay: NRP bacteria under hypoxia (rapid anaerobic dormancy model); type: cell-based, Mycobacterium tuberculosis
[7] = tested on: M. tuberculosis strain H37Rv (mid-log and nutrient-starved); assay: Nutrient starvation model of nonreplicating persisters; type: cell-based, Mycobacterium tuberculosis
M. tuberculosis Erdman = details: mouse, in vivo, po, 25 mg/kg
[8] = tested on: M. abscessus (ATCC 19977); assay: MIC, non-tuberculosis mycobacteria: M. abscessus; type: cell-based; details: Mycobacteroides abscessus, ATCC19977, 72 h, read-out: Minimum Inhibitory Concentration, M. abscessus
M. avium (ATCC 25291) = assay: MIC, non-tuberculosis mycobacteria: M. avium; type: cell-based; details: Mycobacterium avium, ATCC25291, 168 h; broth dilution, visual inspection, 7 days; read-out: Minimum Inhibitory Concentration, M. avium
M. kansasii (ATCC 12478) = assay: MIC, non-tuberculosis mycobacteria: M. kansasii; type: cell-based; details: Mycobacterium kansasii, ATCC12478, 168 h; broth dilution, visual inspection, 7 days; read-out: Minimum Inhibitory Concentration, M. kansasii
M. fortuitum (ATCC 6841) = assay: MIC, non-tuberculosis mycobacteria: M. fortuitum; type: cell-based; details: Mycolicibacterium fortuitum, ATCC6841, 72 h; broth dilution, visual inspection, 3 days; read-out: Minimum Inhibitory Concentration, M. fortuitum
M. ulcerans (ATCC 35840) = assay: MIC by agar proportion method: M. ulcerans; type: cell-based; details: Mycobacterium ulcerans, ATCC35840, 672 h, read-out: Minimum Inhibitory Concentration, M. ulcerans
M. tuberculosis H37Rv = assay: Minimum bactericidal concentration determination; type: cell-based, Mycobacterium tuberculosis
H37Rv-wt = assay: microbe, parasite or virus in culture; type: cell-based, M. tuberculosis; details: Mycobacterium tuberculosis
[9] = tested on: Staphylococcus aureus (ATCC 29213); assay: MIC, spectrum of activity: S.a.; type: cell-based; details: ATCC29213, read-out: Minimum Inhibitory Concentration, S.a
[10] = tested on: Staphylococcus aureus (NRS70); assay: MIC, spectrum of activity: MRSA; type: cell-based; details: read-out: Minimum Inhibitory Concentration, MRSA
[11] = tested on: Bacillus subtilis (ATCC 23857); assay: MIC, spectrum of activity: B.s.; type: cell-based; details: ATCC23857, read-out: Minimum Inhibitory Concentration, B.s.
[12] = tested on: Streptococcus pyogenes (ATCC 700294); assay: MIC, spectrum of activity: S.py; type: cell-based; details: ATCC700294, read-out: Minimum Inhibitory Concentration, S. Py.
[13] = tested on: Streptococcus pneumoniae (R6); assay: MIC, spectrum of activity: S.pn; type: cell-based; details: read-out: Minimum Inhibitory Concentration, S. Pn.
[14] = tested on: Enterococcus faecalis (ATCC 33186); assay: MIC, spectrum of activity: E.f.; type: cell-based; details: ATCC33186, read-out: Minimum Inhibitory Concentration, E.f.
[15] = tested on: Bacillus anthracis sterne 34F2; assay: microbe, parasite or virus in culture; type: cell-based; details: STERNE34F2, read-out: Minimum Inhibitory Concentration, B.a.
[16] = tested on: Burkholderia cepacia (ATCC 25416); assay: MIC, spectrum of activity: B.c.; type: cell-based; details: ATCC25416, read-out: Minimum Inhibitory Concentration, B.c.
[17] = tested on: Stenotrophomonas maltophilia (ATCC 13637); assay: MIC, spectrum of activity: S.m.; type: cell-based; details: ATCC13637, read-out: Minimum Inhibitory Concentration, S.m.
[18] = tested on: Escherichia coli (ATCC 700926); assay: MIC, spectrum of activity: E.c.; type: cell-based; details: ATCC700926, read-out: Minimum Inhibitory Concentration, E.c.
E. coli K12 ∆tolC = type: cell-based; details: E. coli K12 ∆tolC (efflux pump deficient)
physchem = details: pH 7.4, aqueous buffer
in vitro [19] = details: mouse, microsomes
in vitro [20] = details: mouse, plasma
[21] = In vitro cytotoxicity against Vero cells; details: African green monkey, Vero cells (kidney epithelial cells, ATCC CCL-81)
[22] = male, Sprague-Dawley, rat, in vivo; for fe (fraction excreted unchanged in urine): iv, 10 mg/kg; for Cmin,24 h: po, 100 mg/kg
[23] = rats; IV 10 mg/kg and oral 100 mg/kg
in vivo = details: male, Sprague-Dawley, rat; for Vd / clearance / half-life: iv, 10 mg/kg; for AUC(0-inf) / Cmax / bioavailability: po, 100 mg/kg
[24] = Mycobacterium tuberculosis, 168 h; read-out: M. tb. MIC

Compound | Selective Index (Cytox/MIC) (Vero cells [3]) | MIC in presence of 9a [5] | % Growth vs. Control [6] | MIC (M. avium (ATCC 25291)) | MIC (M. kansasii (ATCC 12478)) | MIC (M. fortuitum (ATCC 6841)) | MIC (M. tuberculosis; [24]) | MIC [9] | MIC [10] | MIC [11] | MIC [12] | MIC [13] | MIC [14] | MIC [15] | MIC [16] | MIC [17] | MIC [18] | Minimum Inhibitory Concentration, E.c. ΔtolC (E. coli K12 ∆tolC) | solubility (physchem) | half-life (in vitro [19]) | also measured
O=[N+]([O-])c1ccc(C2=NOC(c3ccc(N4CCOCC4)cc3)C2)o1 (stereo not drawn) [Compound 2] | 483 |  |  |  |  |  |  |  |  |  |  |  |  |  |  |  |  |  |  |  | MIC (M. tuberculosis; Mycobacterium tuberculosis, 168 h, read-out: M. tb. MIC): 0.006 µg/mL; Solubility (pH 7.4): 9.9 µg/mL; Cytotoxicity IC50 (Vero cells [1]): 2.9 ^g µg/mL; Plasma Protein binding [2]: 96.4 ^g %
NNC(=O)c1ccncc1 [Isoniazid] |  | 0.01 to 0.02 µg/mL | 29.1–49.1% |  |  |  |  |  |  |  |  |  |  |  |  |  |  |  |  |  | PAE [4]: 71.8 h; FICI with 9a [5]: 0.52–2.00; Type of Interaction [5]: Indifference (key: Synergy: synergy (FICI ≤0.5); Indifference: indifference (FICI >0.5–4.0); Antagonism: antagonism (FICI >4.0)); MIC ([5]; H37RV): 0.02 µg/mL; fold less active against nutrient starved bacteria than against actively growing culture [7]: 7 fold; reduction in viability (killing) of actively growing culture [7]: > 95%; Log10CFU (SEM), lungs (M. tuberculosis Erdman): 4.60 (0.21) Log10CFU; Log10CFU (SEM), spleen (M. tuberculosis Erdman): 2.61 (0.09) Log10CFU
CO[C@H]1/C=C/O[C@@]2(C)Oc3c(C)c(O)c4c(O)c(c(/C=N/N5CCN(C)CC5)c(O)c4c3C2=O)NC(=O)/C(C)=C\C=C\[C@H](C)[C@H](O)[C@@H](C)[C@@H](O)[C@@H](C)[C@H](OC(C)=O)[C@@H]1C [Rifampin] |  | 0.003 µg/mL | <0.1% | 6.3 µg/mL (≈ 7.66 µM) | 0.39 µg/mL (≈ 0.474 µM) | 1.56 µg/mL (≈ 1.9 µM) |  |  |  |  |  |  |  |  |  |  |  |  |  |  | MIC ([8]; broth dilution, visual inspection, 3 days, range of at least two independent experiments): 50 µg/mL (≈ 60.8 µM); MIC (M. ulcerans (ATCC 35840)): 0.1 to 0.4 µg/mL (≈ 0.122 to 0.486 µM); FICI with 9a [5]: 0.38; Type of Interaction [5]: Synergy (key: Synergy: synergy (FICI ≤0.5); Indifference: indifference (FICI >0.5–4.0); Antagonism: antagonism (FICI >4.0)); fold decrease of MIC in the presence of 9a [5]: ~10 fold; MIC ([5]; H37RV): 0.02 to 0.05 µg/mL
NCC[C@H](O)C(=O)N[C@@H]1C[C@H](N)[C@@H](O[C@H]2O[C@H](CN)[C@@H](O)[C@H](O)[C@H]2O)[C@H](O)[C@H]1O[C@H]1O[C@H](CO)[C@@H](O)[C@H](N)[C@H]1O [Amikacin] |  |  |  | 12.5 µg/mL (≈ 21.3 µM) | 6.25 to 12.5 µg/mL (≈ 10.7 to 21.3 µM) | 0.78 µg/mL (≈ 1.33 µM) |  |  |  |  |  |  |  |  |  |  |  |  |  |  | MIC [8]: 3.13 to 6.25 µg/mL (≈ 5.34 to 10.7 µM)
O=[N+]([O-])c1cn2c(n1)OC[C@@H](OCc1ccc(OC(F)(F)F)cc1)C2 [PA-824] | 178 | 0.01 to 0.02 µg/mL | <0.1% | > 200 µg/mL | 3.1 to 12.5 µg/mL (≈ 8.63 to 34.8 µM) | > 200 µg/mL | 0.39 µg/mL | > 200 µg/mL | > 200 µg/mL | 200 µg/mL (≈ 557 µM) | > 200 µg/mL | > 200 µg/mL | > 200 µg/mL | > 200 µg/mL | > 200 µg/mL | > 200 µg/mL | > 200 µg/mL | >200 µg/mL | 8.5 µg/mL (≈ 23.7 µM) | 8.12 h | MIC (M. tuberculosis; Mycobacterium tuberculosis; M. tuberculosis; […]; read-out: MIC): > 1 µM; MIC [8]: > 200 µg/mL; MIC (M. ulcerans (ATCC 35840); agar proportion method, 4 weeks): 3.1 to 25 µg/mL (≈ 8.63 to 69.6 µM); MIC ([5]; checkerboard, H37Rv, 7 days): 0.2 to 0.8 µg/mL; fold decrease of MIC in the presence of 9a ([5]; checkerboard, H37Rv): ~10 fold; Type of Interaction ([5]; interaction of the treatment with 9a): Synergy (synergy (FICI ≤0.5)); MBC (M. tuberculosis H37Rv): >6; Classification (M. tuberculosis H37Rv; cidal or static from MBC versus MIC): Static (static (MBC/MIC >4)); killing of hypoxic bacilli ([6]; 10 µg/mL, NRP-2 bacilli): > 99.9%; MIC (H37Rv-wt): 0.1 µg/mL (≈ 0.278 µM); fraction unbound (in vitro [20]): 0.071; IC50 [21]: 69.4 µg/mL (≈ 193 µM)
O=[N+]([O-])c1ccc(C2=NOC(c3ccc(N4CCC(Oc5ccc(OC(F)(F)F)cc5)CC4)nc3)C2)o1 (stereo not drawn) [Compound 9b, 3-(5-Nitrofuran-2-yl)-5-(6-(4-(4-(trifluoromethoxy)phenoxy)piperidin-1-yl)pyridin-3-yl)-4,5-dihydroisoxazole] | 667 |  |  |  |  |  | 0.006 µg/mL | 200 µg/mL (≈ 386 µM) | 200 µg/mL (≈ 386 µM) | > 200 µg/mL | 200 µg/mL (≈ 386 µM) | 200 µg/mL (≈ 386 µM) | > 200 µg/mL | 50 µg/mL (≈ 96.4 µM) | 100 µg/mL (≈ 193 µM) | 100 µg/mL (≈ 193 µM) | > 200 µg/mL | >200 µg/mL | 1.6 µg/mL (≈ 3.09 µM) | 6.91 h | fe (fraction excreted unchanged in urine) [22]: 0.01 (0.00) %; Cmin,24 h [22]: 0.11 (0.11) mg/L; Toxicity by intravenous and oral dosing [23]: non-toxic; Vd (in vivo): 1.53 L/kg; clearance (in vivo): 7 mL/min/kg; half-life (in vivo): 2.48 h; AUC(0-inf) (in vivo): 15100 ng·h/mL; Cmax (in vivo): 2310 ng/mL; bioavailability (in vivo): 8%; fraction unbound (in vitro [20]): 0.001; IC50 [21]: 4 µg/mL (≈ 7.72 µM)
O=[N+]([O-])c1ccc(C2=NOC(c3ccc(N4CCC(Oc5ccc(OC(F)(F)F)cc5)CC4)c(F)c3)C2)o1 (stereo not drawn) [Compound 9c, 5-(3-Fluoro-4-(4-(4-(trifluoromethoxy)phenoxy)piperidin-1-yl)phenyl)-3-(5-nitrofuran-2-yl)-4,5-dihydroisoxazole] | 21400 |  |  |  |  |  | 0.001 µg/mL | > 200 µg/mL | > 200 µg/mL | 200 µg/mL (≈ 374 µM) | 200 µg/mL (≈ 374 µM) | > 200 µg/mL | > 200 µg/mL | 12.5 µg/mL (≈ 23.3 µM) | > 200 µg/mL | > 200 µg/mL | > 200 µg/mL | >200 µg/mL | 1.9 µg/mL (≈ 3.55 µM) | 7.04 h | fe (fraction excreted unchanged in urine) [22]: 0.02 (0.00) %; Cmin,24 h [22]: 0.02 (0.02) mg/L; Toxicity by intravenous and oral dosing [23]: Central nervous system toxicity (seizures); Vd (in vivo): 1.69 L/kg; clearance (in vivo): 6.83 mL/min/kg; half-life (in vivo): 5.6 h; AUC(0-inf) (in vivo): 1610 ng·h/mL; Cmax (in vivo): 150 ng/mL; bioavailability (in vivo): 0.83%; fraction unbound (in vitro [20]): 0.024; IC50 [21]: 21.4 µg/mL (≈ 40 µM)
